Active and inactive are the calls of the source. The rule behind the calls is not given here.
Assays:
[1] = Prodrug conversion in Sprague-Dawley rat assessed as Cmax of (2-(benzo[c][1,2,5]oxadiazol-5-ylmethoxy)-5-chloro-4-((2-fluoro-3'-(3-(4-hydroxypiperidin-1-yl)propoxy)-[1,1'-biphenyl]-3-yl)methoxy)benzyl)-D-serine at 45 mg/kg, po measured upto 24 hrs by LC-MS/MS analysis; format: ADME, organism-based; details: in vivo
[2] = Prodrug conversion in C57BL/6 mouse assessed as Cmax of (2-(benzo[c][1,2,5]oxadiazol-5-ylmethoxy)-5-chloro-4-((2-fluoro-3'-(3-(4-hydroxypiperidin-1-yl)propoxy)-[1,1'-biphenyl]-3-yl)methoxy)benzyl)-D-serine at 10 mg/kg, po measured upto 24 hrs by LC-MS/MS analysis; format: ADME, organism-based; details: in vivo
[3] = Prodrug conversion in C57BL/6 mouse assessed as clearance of (2-(benzo[c][1,2,5]oxadiazol-5-ylmethoxy)-5-chloro-4-((2-fluoro-3'-(3-(4-hydroxypiperidin-1-yl)propoxy)-[1,1'-biphenyl]-3-yl)methoxy)benzyl)-D-serine at 2 mg/kg, iv measured upto 24 hrs by LC-MS/MS analysis; format: ADME, organism-based; details: in vivo
[4] = Lipophilicity, log D of the compound at pH 7.4; format: physicochemical; details: buffer
[5] = Prodrug conversion in Sprague-Dawley rat assessed as Tmax of (2-(benzo[c][1,2,5]oxadiazol-5-ylmethoxy)-5-chloro-4-((2-fluoro-3'-(3-(4-hydroxypiperidin-1-yl)propoxy)-[1,1'-biphenyl]-3-yl)methoxy)benzyl)-D-serine at 45 mg/kg, po measured upto 24 hrs by LC-MS/MS analysis; format: ADME, organism-based; details: in vivo
[6] = Prodrug conversion in C57BL/6 mouse assessed as half life of (2-(benzo[c][1,2,5]oxadiazol-5-ylmethoxy)-5-chloro-4-((2-fluoro-3'-(3-(4-hydroxypiperidin-1-yl)propoxy)-[1,1'-biphenyl]-3-yl)methoxy)benzyl)-D-serine at 10 mg/kg, po measured upto 24 hrs by LC-MS/MS analysis; format: ADME, organism-based; details: in vivo
[7] = Prodrug conversion in Sprague-Dawley rat assessed as half life of (2-(benzo[c][1,2,5]oxadiazol-5-ylmethoxy)-5-chloro-4-((2-fluoro-3'-(3-(4-hydroxypiperidin-1-yl)propoxy)-[1,1'-biphenyl]-3-yl)methoxy)benzyl)-D-serine at 45 mg/kg measured upto 24 hrs by LC-MS/MS analysis; format: ADME, organism-based; details: in vivo, po
[8] = Prodrug conversion in Sprague-Dawley rat assessed as AUC (0 to t) of (2-(benzo[c][1,2,5]oxadiazol-5-ylmethoxy)-5-chloro-4-((2-fluoro-3'-(3-(4-hydroxypiperidin-1-yl)propoxy)-[1,1'-biphenyl]-3-yl)methoxy)benzyl)-D-serine at 45 mg/kg, po measured upto 24 hrs by LC-MS/MS analysis; format: ADME, organism-based; details: in vivo
CT26 [9] = experiment: Antitumor activity against mouse CT26 cells implanted in BALB/c mouse assessed as reduction in Treg lymphocyte at 25 mg/kg, ip measured for 20 days; format: functional, organism-based; details: time 20.0 day
[10] = Prodrug conversion in C57BL/6 mouse assessed as oral bioavailability of (2-(benzo[c][1,2,5]oxadiazol-5-ylmethoxy)-5-chloro-4-((2-fluoro-3'-(3-(4-hydroxypiperidin-1-yl)propoxy)-[1,1'-biphenyl]-3-yl)methoxy)benzyl)-D-serine at 10 mg/kg measured upto 24 hrs by LC-MS/MS analysis; format: ADME, organism-based; details: in vivo
[11] = Prodrug conversion in C57BL/6 mouse assessed as Cmax of (2-(benzo[c][1,2,5]oxadiazol-5-ylmethoxy)-5-chloro-4-((2-fluoro-3'-(3-(4-hydroxypiperidin-1-yl)propoxy)-[1,1'-biphenyl]-3-yl)methoxy)benzyl)-D-serine at 2 mg/kg, iv measured upto 24 hrs by LC-MS/MS analysis; format: ADME, organism-based; details: in vivo
[12] = molecular target: Programmed cell death protein 1/Programmed cell death 1 ligand 1 (Homo sapiens, UniProt Q9NZQ7); experiment: Inhibition of PD-1/PD-L1 interaction (unknown origin) incubated for 15 min by HTRF assay; format: protein-complex assay
Sequence of Programmed cell death protein 1/Programmed cell death 1 ligand 1 (Q15116 whole entry): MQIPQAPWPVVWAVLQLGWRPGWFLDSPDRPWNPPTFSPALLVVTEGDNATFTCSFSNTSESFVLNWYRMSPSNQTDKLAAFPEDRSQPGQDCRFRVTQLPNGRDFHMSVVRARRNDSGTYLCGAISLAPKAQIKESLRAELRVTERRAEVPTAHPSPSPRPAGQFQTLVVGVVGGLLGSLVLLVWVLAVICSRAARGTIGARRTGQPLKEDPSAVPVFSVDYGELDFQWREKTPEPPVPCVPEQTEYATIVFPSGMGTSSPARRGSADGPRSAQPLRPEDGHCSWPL
Sequence of Programmed cell death protein 1/Programmed cell death 1 ligand 1 (Q9NZQ7 whole entry): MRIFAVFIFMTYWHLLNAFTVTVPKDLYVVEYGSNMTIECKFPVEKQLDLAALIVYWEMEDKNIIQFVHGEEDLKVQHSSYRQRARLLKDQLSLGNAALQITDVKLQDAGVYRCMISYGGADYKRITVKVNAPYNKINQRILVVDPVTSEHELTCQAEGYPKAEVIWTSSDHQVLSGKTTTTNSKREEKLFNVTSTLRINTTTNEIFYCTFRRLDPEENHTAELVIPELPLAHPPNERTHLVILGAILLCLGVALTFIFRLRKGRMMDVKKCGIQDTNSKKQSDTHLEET

[13] = Prodrug conversion in C57BL/6 mouse assessed as half life of (2-(benzo[c][1,2,5]oxadiazol-5-ylmethoxy)-5-chloro-4-((2-fluoro-3'-(3-(4-hydroxypiperidin-1-yl)propoxy)-[1,1'-biphenyl]-3-yl)methoxy)benzyl)-D-serine at 2 mg/kg, iv measured upto 24 hrs by LC-MS/MS analysis; format: ADME, organism-based; details: in vivo
[14] = Prodrug conversion in C57BL/6 mouse assessed as AUC (0 to t) of (2-(benzo[c][1,2,5]oxadiazol-5-ylmethoxy)-5-chloro-4-((2-fluoro-3'-(3-(4-hydroxypiperidin-1-yl)propoxy)-[1,1'-biphenyl]-3-yl)methoxy)benzyl)-D-serine at 10 mg/kg, po measured upto 24 hrs by LC-MS/MS analysis; format: ADME, organism-based; details: in vivo
CT26 [15] = experiment: Antitumor activity against mouse CT26 cells implanted in BALB/c mouse assessed as tumor growth inhibition at 25 mg/kg, ip measured for 18 days; format: functional; details: CT26, 432 h, time 18 day, read-out: TGI
[16] = Prodrug conversion in Sprague-Dawley rat assessed as clearance of (2-(benzo[c][1,2,5]oxadiazol-5-ylmethoxy)-5-chloro-4-((2-fluoro-3'-(3-(4-hydroxypiperidin-1-yl)propoxy)-[1,1'-biphenyl]-3-yl)methoxy)benzyl)-D-serine at 9 mg/kg, iv measured upto 24 hrs by LC-MS/MS analysis; format: ADME, organism-based; details: in vivo
CT26 [17] = experiment: Antitumor activity against mouse CT26 cells implanted in BALB/c mouse assessed as increase in percentage of CD8+ cells at 25 mg/kg, ip measured for 20 days; format: functional; details: time 20 day
CT26 [18] = experiment: Antitumor activity against mouse CT26 cells implanted in BALB/c mouse assessed as tumor growth inhibition at 10 mg/kg, ip measured at 8 to 14 days; format: functional; details: time 8-14 day, read-out: TGI
[19] = Prodrug conversion in Sprague-Dawley rat assessed as half life of (2-(benzo[c][1,2,5]oxadiazol-5-ylmethoxy)-5-chloro-4-((2-fluoro-3'-(3-(4-hydroxypiperidin-1-yl)propoxy)-[1,1'-biphenyl]-3-yl)methoxy)benzyl)-D-serine at 9 mg/kg, iv measured upto 24 hrs by LC-MS/MS analysis; format: ADME, organism-based; details: in vivo
[20] = Prodrug conversion in Sprague-Dawley rat assessed as Tmax of (2-(benzo[c][1,2,5]oxadiazol-5-ylmethoxy)-5-chloro-4-((2-fluoro-3'-(3-(4-hydroxypiperidin-1-yl)propoxy)-[1,1'-biphenyl]-3-yl)methoxy)benzyl)-D-serine at 9 mg/kg, iv measured upto 24 hrs by LC-MS/MS analysis; format: ADME, organism-based; details: in vivo
CT26 [21] = experiment: Cytotoxicity against mouse CT26 cells assessed as effect on cell viability at 0.07 to 150 uM incubated for 48 hrs by CCK-8 assay; format: functional, cell-based; details: dose 0.07-150 µM
[22] = Acute toxicity in mouse assessed as mortality at 1000 mg/kg, po administered as single dose for 14 days; format: organism-based; details: in vivo, 336 h, time 14 day
[23] = Prodrug conversion in C57BL/6 mouse assessed as AUC (0 to t) of (2-(benzo[c][1,2,5]oxadiazol-5-ylmethoxy)-5-chloro-4-((2-fluoro-3'-(3-(4-hydroxypiperidin-1-yl)propoxy)-[1,1'-biphenyl]-3-yl)methoxy)benzyl)-D-serine at 2 mg/kg, iv measured upto 24 hrs by LC-MS/MS analysis; format: ADME, organism-based; details: in vivo
MC-38 = experiment: Antitumor activity against mouse MC38 cells implanted in C57BL/6J mouse assessed as tumor growth inhibition at 5 mg/kg, po measured for 20 days; format: functional; details: MC-38, 480 h, time 20 day, read-out: TGI

CCOC(=O)[C@@H](CO)NCc1cc(Cl)c(OCc2cccc(-c3cccc(OCCCN4CCC(O)CC4)c3)c2F)cc1OCc1ccc2nonc2c1.Cl.Cl
Cmax [1]: 49.8 ng/mL
Cmax [2]: 255.7 ng/mL
CL [3]: 61.845 mL/min/kg
logD [4]: 1.59
Tmax [5]: 4 h
t1/2 [6]: 1.6 h
t1/2 [7]: 4.3 h
AUCt [8]: 405.6 ng·h/mL
Activity (CT26 [9]): Active
F [10]: 11.5%
Cmax [11]: 872.3 ng/mL
IC50 [12]: 786 nM
t1/2 [13]: 1.7 h
AUCt [14]: 315.6 ng·h/mL
inhibition in vivo at 25 mg/kg (CT26 [15]): 54.8%
CL [16]: 23.77 mL/min/kg
Activity (CT26 [17]): 7.2%
inhibition in vivo at 10 mg/kg (CT26 [18]): 21.9%
t1/2 [19]: 7.9 h
Tmax [20]: 4.8 min
Activity (CT26 [21]): inactive
Activity [22]: Non-Toxic
AUCt [23]: 531.6 ng·h/mL
inhibition in vivo at 5 mg/kg (MC-38): 49.2%

Reference: ChEMBL document CHEMBL5518218, “Discovery of Novel PD-L1 Small-Molecular Inhibitors with Potent In Vivo Anti-tumor Immune Activity” (J Med Chem, 2024)
